Like-named read-outs stand apart in the source and are kept apart here.
Key:
[1] = test system: acute myelogenous leukemia cells (MV-4-11 cells); assay: Cytotoxicity to acute myelogenous leukemia cells (MV-4-11 cells), CCK-8; settings: Homo sapiens, MV4-11, 72 h
Experimental: The following experiment was performed to evaluate the cytotoxicity of [1,2,4]triazolo[4,3-a]quinoxaline derivative according to the present invention to acute myelogenous leukemia cells (MV-4-11 cells).
Acute myelogenous leukemia cells (MV-4-11 cells) were distributed in a 96 well plate at the density of 5×10^3 cells/well. The plated cells were treated with the compounds of the present invention dissolved in DMSO at the different concentrations ranging from 0.01 μM to 10 μM. 72 hours later, the activities of the compounds were determined using CCK-8 reagent.

[2] = target: BRD4 (BD1+BD2) bromodomain (Homo sapiens (Human), UniProt O60885); assay: BRD4 binding inhibition (AlphaScreen, GST-BRD4 vs tetraacetylated histone H4 peptide)
How it was run: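 AlphaScreen read after 30 min dark incubation at room temperature with glutathione acceptor/streptavidin donor beads (10 μg/ml each). The beads were added to compound plus 100 nM biotin-H4 (K5,8,12,16-acetyl) peptide and 100 nM GST-BRD4 BD1+BD2 in pH 7.4 HEPES/Tween/BSA/DTT buffer.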

[3] = read-out: IC50, cytotoxicity against acute myelogenous leukemia cells
[4] = read-out: MV-4-11 Cytotoxicity IC50
[5] = GST-BRD4 (BD1+BD2) / biotinylated acetyl-histone H4 (Lys5,8,12,16) peptide, read-out: IC50, BRD4 binding inhibition
[6] = GST-BRD4 (BD1+BD2) vs biotinylated acetyl-histone H4 peptide, AlphaScreen, read-out: BRD4 IC50

| SMILES | IC50 [2, 5] [nM] | IC50 [2, 6] [nM] | IC50 [1, 3] [nM] | IC50 [1, 4] [nM] | IC50 ([2]; IC50, BRD4 binding inhibition, GST-BRD4 (BD1+BD2) / biotinylated acetyl-histone H4 (Lys5,8,12,16) peptide) [nM] |
| --- | --- | --- | --- | --- | --- |
| Cc1nnc2c(NCCCCNC(=O)C(C)(C)C)nc3cc(OCCN4CCOCC4)ccc3n12 [Example 433, 2,2-dimethyl-N-{4-[1-methyl-7-(2-morpholine-4-yl-ethoxy)-[1,2,4]triazolo[4,3-a]quinoxaline-4-ylamino]-butyl}-propionamide] | – | 61 | – | 340 | – |
| Cc1nnc2c(NCCCCNC(=O)CC(C)C)nc3cc(OCc4ccc(-c5nnn(C)n5)cc4)ccc3n12 [Example 349, 3-methyl-N-(4-{1-methyl-7-[4-(2-methyl-2H-tetrazolo-5-yl)-benzyloxy]-[1,2,4]triazolo[4,3-a]quinoxaline-4-ylamino}-butyl)-butyramide] | – | 55 | ≤ 200 | 160 | – |
| COc1ccc2c(c1)nc(NCCCCNC(=O)CCC1CCCC1)c1nnc(C)n12 [Example 309, 3-cyclopentyl-N-[4-(7-methoxy-1-methyl-[1,2,4]triazolo[4,3-a]quinoxaline-4-ylamino)-butyl]-propionamide] | ≤ 10 | – | ≤ 200 | 110 | – |
| COc1ccc2c(c1)nc(NCCCCNC(=O)Oc1ccccc1)c1nnc(C)n12 [Example 333, [4-(7-methoxy-1-methyl-[1,2,4]triazolo[4,3-a]quinoxaline-4-ylamino)-butyl]-carbamic acid phenylester] | – | 18 | ≤ 200 | 110 | ≤ 50 |
| CSc1ccc2c(c1)nc(NCCCCNC(=O)OC(C)(C)C)c1nnc(C)n12 [Example 354, [4-(1-methyl-7-methylsulfanyl-[1,2,4]triazolo[4,3-a]quinoxaline-4-ylamino)-butyl]-carbamic acid-tert-butylester] | – | 56 | – | 472 | – |
| Cc1ccc2[nH]c(-c3ccc4c(c3)nc(NCCCCNC(=O)OC(C)(C)C)c3nnc(C)n34)nc2c1 [Example 219, {4-[1-methyl-7-(5-methyl-1H-benzoimidazole-2-yl)-[1,2,4]triazolo[4,3-a]quinoxaline-4-ylamino]-butyl}-carbamic acid-tert-butylester] | – | 68 | ≤ 200 | 79 | – |
| COc1cc2nc(NCCCCNC(=O)OCC(C)C)c3nnc(C(C)C)n3c2cc1OC [Example 602, [4-(1-isopropyl-7,8-dimethoxy-[1,2,4]triazolo[4,3-a]quinoxaline-4-ylamino)-butyl]-carbamic acid isobutylester] | – | 58 | – | 290 | – |
| COc1c(C)ccc2c1nc(NCCCCNC(=O)c1ccccc1)c1nnc(C)n12 [Example 138, N-[4-(6-methoxy-1,7-dimethyl-[1,2,4]triazolo[4,3-a]quinoxaline-4-ylamino)-butyl]-benzamide] | – | 51 | – | 860 | – |
| Cc1nnc2c(NCCCCNC(=O)[C@@H](F)C(C)C)nc3cc(N4CCc5sccc5C4)ccc3n12 [Example 529, N-{4-[7-(6,7-dihydro-4H-thiano[3,2-c]pyridine-5-yl)-1-methyl-[1,2,4]triazolo[4,3-a]quinoxaline-4-ylamino]-butyl}-2-(S)-fluoro-3-methyl-butyramide] | ≤ 50 | 31 | ≤ 200 | 107 | – |
| COc1ccc2c(c1)nc(NCCCCNC(=O)c1ccccc1F)c1nnc(C)n12 [Example 328, 2-fluoro-N-[4-(7-methoxy-1-methyl-[1,2,4]triazolo[4,3-a]quinoxaline-4-ylamino)-butyl]-benzramide] | ≤ 50 | 43 | ≤ 200 | 190 | – |

The remaining molecules from weak to strong by IC50 [2, 6], led by results:

| IC50 [2, 5] [nM] | IC50 [2, 6] [nM] | SMILES | IC50 [1, 3] [nM] | IC50 [1, 4] [nM] | IC50 ([2]; IC50, BRD4 binding inhibition, GST-BRD4 (BD1+BD2) / biotinylated acetyl-histone H4 (Lys5,8,12,16) peptide) [nM] |
| --- | --- | --- | --- | --- | --- |
| ≤ 50 | 26 | Cc1nnc2c(NCCCCNC(=O)[C@@H](NS(C)(=O)=O)C(C)C)nc3cc(N4CCOCC4)ccc3n12 [Example 505, 2-(S)-methanesulfonylamino-3-methyl-N-[4-(1-methyl-7-morphonyl-4-yl-[1,2,4]triazolo[4,3-a]quinoxaline-4-ylamino)-butyl]-butyramide] | – | 533 | – |
| ≤ 50 | 22 | Cc1nnc2c(NCCCCNC(=O)CC(C)C)nc3cc(C(=O)Nc4ccccc4N)ccc3n12 [Example 215, 1-methyl-4-[4-(3-methyl-butyrylamino)-butylamino]-[1,2,4]triazolo[4,3-a]quinoxaline-7-carboxylic acid-(2-amino-phenyl)-amide] | – | 276 | – |
| ≤ 50 | 19 | CCC(C)C(=O)NCCCCNc1nc2cc(OC(C)C)ccc2n2c(C)nnc12 (stereo not shown) [Example 450, N-[4-(7-isopropoxy-1-methyl-[1,2,4]triazolo[4,3-a]quinoxaline-4-ylamino)-butyl]-2-methyl-butyramide] | – | 270 | – |
| ≤ 50 | 18 | COc1cc2nc(NCCCCNC(=O)C=C(C)C)c3nnc(C)n3c2cc1OC [Example 71, 3-methyl-butene-2-oic acid-[4-(7,8-dimethoxy-1-methyl-[1,2,4]triazolo[4,3-a]quinoxaline-4-ylamino)-butyl]-amide] | ≤ 200 | 110 | – |
| ≤ 50 | 17 | Cc1nnc2c(NCCCCNC(=O)C(C)(C)C)nc3cc4c(cc3n12)OCCO4 [Example 180, 2,2-dimethyl-N-[4-(1-methyl-8,9-dihydro-7,10-dioxa-2,3,5,11b-tetraaza-cyclopenta[a]anthracene-4-ylamino)-butyl]-propionamide] | ≤ 200 | 190 | – |
| ≤ 50 | 16 | CCOc1ccc2c(c1)nc(NCCCCNC(=O)CC(C)C)c1nnc(C)n12 [Example 442, N-[4-(7-ethoxy-1-methyl-[1,2,4]triazolo[4,3-a]quinoxaline-4-ylamino)-butyl]-3-methyl-butyramide] | ≤ 200 | 110 | – |
| ≤ 50 | 15 | Cc1nnc2c(NCCCCNC(=O)CC(C)C)nc3cc(N4CCc5sccc5C4)ccc3n12 [Example 528, N-{4-[7-(6,7-dihydro-4H-thiano[3,2-c]pyridine-5-yl)-1-methyl-[1,2,4]triazolo[4,3-a]quinoxaline-4-ylamino]-butyl}-3-methyl-butyramide] | – | 203 | – |
| ≤ 50 | 13 | CCC(C)C(=O)NCCCCNc1nc2cc(OCCOC)ccc2n2c(C)nnc12 (stereo not shown) [Example 380, N-{4-[7-(2-methoxy-ethoxy)-1-methyl-[1,2,4]triazolo[4,3-a]quinoxaline-4-ylamino]-butyl}-2-methyl-butyramide] | – | 610 | – |
| ≤ 50 | 13 | CCOc1ccc2c(c1)nc(NCCCCNC(=O)OC(C)C)c1nnc(C)n12 [Example 443, [4-(7-ethoxy-1-methyl-[1,2,4]triazolo[4,3-a]quinoxaline-4-ylamino)-butyl]-carbamic acid isopropylester] | ≤ 200 | 120 | – |
| ≤ 10 | 10 | Cc1nnc2c(NCCCCNC(=O)Cc3cccs3)nc3cc(-n4ccnc4)ccc3n12 [Example 496, N-[4-(7-imidazole-1-yl-1-methyl-[1,2,4]triazolo[4,3-a]quinoxaline-4-ylamino)-butyl]-2-thiophene-2-yl-acetamide] | ≤ 200 | 20 | – |
| ≤ 10 | 8 | Cc1nnc2c(NCCCCNC(=O)CC(C)C)nc3cc(NS(C)(=O)=O)ccc3n12 [Example 257, N-[4-(7-methanesulfonylamino-1-methyl-[1,2,4]triazolo[4,3-a]quinoxaline-4-ylamino)-butyl]-3-methyl-butyramide] | – | 327 | – |
